≈ marks a conversion by molar mass, not a printed value.
Assays:
Type in all cases: physicochemical
[1] = Nucleation induction time of aspirin on nanopatterned AA-co-DVB polymer films from butyl acetate; settings: for Nucleation induction time τ: aspirin, butyl acetate
Text: The effect of nanopatterned polymer films on the kinetics of nucleation from solution was quantified by measuring the nucleation induction time of aspirin, a representative small organic molecule. The polymer film was made from acrylic acid crosslinked with divinylbenzene (AA-co-DVB), with which aspirin could interact via hydrogen bonding. Polymer crosslinking was designed to avoid solvent uptake and to maintain the surface morphology when in contact with the solution. Due to the stochastic nature of nucleation events, 20 to 50 samples were tested simultaneously to obtain the probability distribution for the nucleation induction time. The average induction time, τ, was determined from a statistical analysis on the induction time data assuming that nucleation follows a Poisson distribution, P(t)=exp(−t/τ). The nucleation rate, J, was calculated from τ via J=1/τV, where V is the volume of solution, with the assumption that the time scale of nucleation is much longer than that of crystal growth, valid for this system.
In FIG. 14: Effect of the nanopore shape in AA-co-DVB polymer films on the nucleation kinetics of aspirin: flat vs. spherical pores (left); spherical pores vs. hexagonal pores and square pores of the same size (right). J is the nucleation rate, in number of nuclei per ml of solution per hour, calculated from the average nucleation induction time τ by J=1/τV, where V is the volume of solution. The standard errors of J were calculated from the regression on the induction time probability distribution following the Poisson distribution.
Nucleation Induction Time Measurement: Once synthesized, the polymer film with its substrate was inserted vertically into a 1 ml glass shell vial containing 200 μl 47 mg/ml aspirin solution in butyl acetate. For each polymer sample, 20-50 vials were assembled and immersed in a circulator stabilized at 50±0.1° C. to dissolve any pre-existing crystals, and then the solution was quench cooled to 5±0.1° C. by immersing into a second circulator. The number of vials in which crystallization occurred was recorded as a function of time. All the operations involving exposing polymer films, aspirin solutions and shell vials to the atmosphere were conducted inside a Bio Safety Cabinet to reduce impurity contamination to the lowest level. Efforts were made to clean all components before usage and aspirin solutions were filtered with an Acrodisc 0.2 μm PTFE syringe filter.

[2] = Equilibrium partitioning of ASA / ACM into PEGDA and PEGDA-co-AM gels
Description: This theory is exemplified by quantifying the partitioning of aspirin between the PEGDA gel phase and 38/62 ethanol/water (v/v), and determining the concentration of aspirin in the hydrogel particles. The partitioning experiments were performed at the same solution concentration and temperature as in the nucleation induction time experiments. In the partitioning experiment, both the concentrations of aspirin and ethanol were measured, as there are three species in the bulk solution, namely aspirin, ethanol and water, all of which partition in the gel phase to a certain degree determined by their relative interaction with the PEGDA polymer matrix.
Composition of aspirin solution in the PEGDA gel phase were compared with the bulk phase. PEGDA gels sufficiently large for convenient handling were synthesized by UV polymerization, following the same formulation as the synthesis of PEGDA particles used in the crystallization study. The PEGDA gels were washed with ethanol and vacuum dried to remove unreacted species. The gel was then immersed in excessive 38 mg/ml aspirin solution in 38/62 ethanol/water (v/v) and allowed sufficient time to reach equilibrium swelling at 15° C. before taken out, pad dried, and put in excessive water. After 5 hours immersed in water, the concentrations of aspirin and ethanol in the aqueous phase were analyzed by UV-Vis spectroscopy and Gas Chromatography, respectively.
In FIG. 10: Partitioning of aspirin vs. acetaminophen in the PEGDA gel. Y axis represents the relative API concentration in the PEGDA, normalized by the bulk concentration. The aspirin partitioning experiment was conducted in 38 mg/ml aspirin solution in 38/62 ethanol/water (v/v) at 15° C. As for acetaminophen, 95 mg/ml acetaminophen solution in 38/62 ethanol/water (v/v) was used and the equilibration temperature was 8° C. In both cases, the experimental conditions were kept the same as used in the nucleation induction time study.
Quantification of polymer-solute interactions: The strength of intermolecular interactions between the PEGDA-co-AM polymer network and the molecule to crystallize was characterized with the solute equilibrium partition coefficient at the same condition as used in the crystallization study. Solute partition coefficient κ, defined as the ratio of solute mass fraction in solution confined in the gel to that in the bulk, is a relevant parameter because it informs the solute concentration in the gel at the crystallization condition, which is an important factor affecting nucleation. […] The PEGDA polymers are comprised of the PEG subchain and the acrylate crosslinkers.
Partition coefficient measurements: Partition coefficients of ASA in PEGDA-co-AM gels from its bulk solution were determined as follows. In brief, a series of gels with varying mesh sizes of approximately 5 mm in diameter and 0.5 mm in thickness were synthesized via UV polymerization following the same formula as used in the microgel synthesis. The residue solvent, porogen and monomer molecules were removed by extensive washing with solvent ethanol and subsequent vacuum drying. The dry gels were then immersed in excessive volume of 38 mg/ml ASA solution in 38/62 (v/v) ethanol/water at 15° C. for overnight.

[3] = Isothermal titration calorimetry of ASA adsorption onto microgels; settings: 38/62 ethanol/water, 23° C
Description: The ASA-polymer interactions were further quantified with the solute adsorption enthalpy via Isothermal Titration calorimetry (ITC), which also helps to deepen the understanding of partitioning effect. […] The data are presented both as instantaneous enthalpies at a given concentration, ΔHASA-gel (top), and as cumulative enthalpies up to a certain concentration, ΔHASA-gel ^tot (bottom).
Isothermal titration calorimetry (ITC): ITC measurements were performed on a TA Instruments NanoITC calorimeter. All experiments were performed at 23° C. using injections of ΔV=10 μL of titrant, with a waiting time of 1000 sec in between injections and 25 injections per measurement. For all measurements, The differential heat input, q(t), was measured as a function of time t over all injections, followed by integration of q(t) over each individual injection to obtain the molar heat of injection, Q(T,P,c). The molar heat of injection can then be cumulatively added over all previous injections, yielding the total molar heat, Qtot(T,P,c). […]
where ΔHASA-gel is the molar enthalpy of interaction between ASA and the microgel particles, and ΔHdil^i is the molar enthalpy of dilution of component i (ASA or gel, respectively) in 38/62 (v/v) ethanol/water. […] (X) was used to subtract the measured dilution enthalpies from the initial measurements of Q(T,P,c) in order to obtain ΔHASA-gel. […]

[4] = Solubility of ASA and ACM

enhancement of aspirin nucleation rate relative to spherical pores ([1]; AA-co-DVB film with hexagonal pores): more than an order of magnitude
enhancement of aspirin nucleation rate relative to spherical pores ([1]; AA-co-DVB film with square pores): three-fold
Nucleation induction time τ ([1]; AA-co-DVB film with hexagonal nanopores, 15 nm): 26 ± 7 min
Nucleation induction time τ ([1]; AA-co-DVB film with square nanopores, 125 nm): 138 ± 12 min
increase of κ after introducing AM into the PEGDA gel ([2]; ASA, on average): 60%
molar ratio of ethylene oxide units in PEG to ASA ([2]; PEGDA gels, all mesh sizes, calculated from the partition experiments): 7.7
AM to ASA molar ratio ([2]; PEGDA-co-AM gels): around unity
ASA concentration in the PEGDA-co-AM gels relative to bulk solution ([2]; PEGDA-co-AM gels): as high as six times
aspirin concentration in PEGDA particles with respect to the bulk ([2]; all PEGDA particles, 38 mg/ml in 38/62 ethanol/water, 15° C): more than three times
enthalpy of adsorption of ASA at infinite dilution ΔHASA-gel^∞ ([3]; PEG400DA microgels): -9.8 kcal/mol
enthalpy of adsorption of ASA at infinite dilution ΔHASA-gel^∞ ([3]; PEG400DA-co-AM microgels): -12.3 kcal/mol
solubility ([4]; aqueous with cosolvent or surfactant or cyclodextrin, 38/62 (v/v) ethanol/water mixture at 25° C): 32 mg/mL (≈ 178 mM)
solubility in water ([4]; water at 3° C): essentially insoluble
SMILES: CC(=O)Oc1ccccc1C(=O)O [aspirin]
